Assays:
Assay type in all cases: functional
[1] = Ratio of GI50 without hPAP/ GI50 with hPAP
[2] = tested on: CCRF-CEM; experiment: In vitro concentration required for 50% inhibition of growth of human leukemia cell line CCRF-CEM without hPAP (0.2 unit/mL)
[3] = tested on: CCRF-CEM; experiment: In vitro concentration required for 50% inhibition of growth of human leukemia cell line CCRF-CEM with hPAP (0.2 unit/mL)

Row | GI50 [2] | GI50 [3] | Structure (SMILES) | Ratio [1]
1 | 90 nM | 99.8 nM | Nc1ccn([C@@H]2O[C@H](CO)[C@@H](O)[C@@H]2O)c(=O)n1 [CYTARABINE] | 0.902
2 | 463 nM | 0.8 nM | COC(=O)[C@H](Cc1ccccc1)NP(=O)(O)OCC1OC(n2cc(F)c(=O)[nH]c2=O)CC1O (some centres not stated) | 578
3 | 2 nM | 0.6 nM | O=c1[nH]c(=O)n([C@H]2C[C@H](O)[C@@H](CO)O2)cc1F [FLOXURIDINE] | 3.33
4 | 4830 nM | 0.9 nM | COC(=O)[C@H](Cc1c[nH]c2ccccc12)NP(=O)(O)OCC1OC(n2cc(F)c(=O)[nH]c2=O)CC1O (some centres not stated) | 5370
